# Data taken from ChEMBL document CHEMBL5303711, “ECBD screening data for assay EOS300108” (2023).
# Structures can show the parent of a compound that is named as a salt. Calls of active or inactive are those of the source. No rule for the calls is given here.
# Experiment: Cytotoxicity activity against human HepG2 cells assessed by CellTiter-Glo luminescent cell viability assay.
# Type: toxicity, cell-based
# Design: assay stage confirmatory assay, source tissue liver
# Details: HepG2 cells, read-out: IC50 relative
row,Compound,CC50
1,CN(C)S(=O)(=O)N1CCN(C(=O)c2cnn(-c3ccc(Cl)cc3)c2C(F)(F)F)CC1,5.2 µM (active)
2,NC(=O)c1ccc2[nH]c(-c3ccc(Oc4ccc(Cl)cc4)cc3)nc2c1,14.7 µM (inactive)
3,CN1C(=O)c2cccc3c(S(=O)(=O)NC4CCCCC4)ccc1c23,50 µM (inactive)
4,COc1ccc(-n2ccc(C(=O)Nc3cc(Cl)c(=O)n(C)c3)n2)cc1,7.7 µM (active)
5,CCOC(=O)[C@H](Cc1ccc([N+](=O)[O-])cc1)NC(=O)c1ccccc1,15.4 µM (active)
6,CN1CCC(COc2cnc(-c3cccc(Cn4nc(-c5cccc(C#N)c5)ccc4=O)c3)nc2)CC1 [TEPOTINIB],3.4 µM (active)
7,CCc1nccn1[C@H]1CCCN(CCOc2ccccc2F)C1,9.3 µM (active)
8,CCC(CC)C(c1ccc(Nc2nc3ccccc3s2)cc1)n1cncn1 (stereo not given) [TALAROZOLE],14.4 µM (inactive)
9,CCC(C)NC(=O)N1CC(Oc2ccc(-c3noc(-c4cccnc4)n3)cc2)C1 (stereo not given),4.5 µM (active)
10,COc1cc2c(Oc3ccc4[nH]c(C)cc4c3F)ncnc2cc1OCCCN1CCCC1 [CEDIRANIB],2.5 µM (active)
11,Cc1ccn(-c2cc(N3CCN(C(=O)Nc4ccc5c(c4)OCO5)CC3)ncn2)n1,15.7 µM (inactive)
12,Cc1nc(-c2cccc(C(=O)N3CCN(Cc4noc(-c5ccc(F)cc5)n4)CC3)c2)no1,5.4 µM (active)
13,CCN1CCCCC1CNCc1ccc2cc(O)ccc2c1 (stereo not given),11.5 µM (active)
14,Cc1ccc(Sc2cccc3nc(N)nc(N)c23)cc1,8.3 µM (active)
15,Cc1ccc(S(=O)(=O)N2CCN(c3cc(-n4ccnc4C)ncn3)CC2)cc1C,5.1 µM (active)
16,O=C(NO)c1cnc(NC2(c3ccccc3)CC2)nc1,7 µM (active)
17,O=C(Nc1ccc(O)cc1)c1cnn(Cc2ccccc2Cl)c1,8.4 µM (active)
18,CCN(CC)S(=O)(=O)c1ccc(C(=O)Nc2cc(C)nn2-c2nc(C)cc(=O)[nH]2)cc1,6.5 µM (inactive)
19,COc1ccc(-c2cc3c4nn(CC(=O)Nc5cccc(OC)c5)c(=O)n4ccn3n2)cc1,50 µM (inactive)
20,CCOCC(=O)N1CCN(c2nc3c(s2)c(C)nn3-c2ccc(OC)cc2)CC1,11.5 µM (active)
21,CC1=C(/C=C/C(C)=C/C=C/C(C)=C/C(=O)Nc2ccc(O)cc2)C(C)(C)CCC1 [FENRETINIDE],10.8 µM (active)
22,FC(F)c1nc2ccccc2n1-c1nc(N2CCOCC2)nc(N2CCOCC2)n1 [ZSTK-474],1.2 µM (active)
23,CCS(=O)(=O)N1CCc2ccc(NC(=O)Nc3cccc(C#N)c3)cc21,5.2 µM (active)

row,Compound,CC50
1,Cc1cc(OCCOCCN2CCN(C)CC2)c(Cl)c(C)c1Cl,5.3 µM (active)
2,CSc1cccc(NS(=O)(=O)c2ccc3c(c2)CCN3C(C)=O)c1,6.6 µM (active)
3,CC(C)(C)c1ccc(C(O)CCCN2CCC(C(O)(c3ccccc3)c3ccccc3)CC2)cc1 (stereo not given) [TERFENADINE],3.1 µM (active)
4,N#Cc1cc2cc(CN3CCC(Nc4ncnc5sc(CC(F)(F)F)cc45)CC3)ccc2[nH]1,2.2 µM (active)
5,COc1cc(OC)cc(N(CCNC(C)C)c2ccc3ncc(-c4cnn(C)c4)nc3c2)c1 [ERDAFITINIB],3.9 µM (active)
6,c1ccc2c(c1)OC[C@H](CNc1ncnc3sccc13)O2,1.8 µM (active)
7,CC1(C)N=C(N)N=C(N)N1c1cccc(Cl)c1,0.9 µM (active)
8,COC(=O)[C@H](CC(C)C)NC(=O)c1ccc(NC[C@@H](N)CS)cc1-c1cccc2ccccc12,50 µM (inactive)
9,Cc1cc(C)cc(OC[C@@H](O)CN2CCC(C(=O)Nc3ccccc3)CC2)c1,12.1 µM (active)
10,CCNC(=O)c1noc(-c2cc(Cl)c(O)cc2O)c1-c1ccc(OC)cc1,0.1 µM (active)
11,O=C(CCN1CCN(C(=O)OCc2cc(Cl)cc(Cl)c2)CC1)c1ccc2[nH]c(=O)oc2c1,20.6 µM (inactive)
12,Clc1ccc2oc(C3CCNCC3)cc2c1,10.1 µM (active)
13,CCCc1cc(C)[nH]c(=O)c1CNC(=O)c1cc(-c2ccc(N3CCN(C(C)C)CC3)nc2)cc2c1cnn2C(C)C,2.6 µM (active)
14,Oc1cccc2ccc(Nc3ccccn3)nc12,0.7 µM (active)
15,Cc1ccc(NC(=O)Nc2ccc3c(c2)N(S(C)(=O)=O)CC3)cc1C,16.8 µM (inactive)
16,CCCc1nnsc1C(=O)Nc1nc2ccccc2[nH]1,19 µM (inactive)
17,COc1ccc(CCN2Cc3ccc(N)cc3C2)cc1,20.2 µM (inactive)
18,Cc1csc(NC(=O)CSc2ccc(-c3ccccc3)nn2)n1,14.7 µM (inactive)
19,NC(=O)c1cnc2[nH]ccc2c1N[C@@H]1[C@@H]2C[C@@H]3C[C@H]1C[C@@](O)(C3)C2,8 µM (active)
20,CCO[C@@H](CCNC(=O)c1csc(-c2ccoc2)n1)C(C)C,1.3 µM (active)
21,CCCc1cc(C(=O)NCC2CN(C3CCN(C4CCC4)CC3)C(=O)CO2)n(C)n1 (stereo not given),50 µM (inactive)
22,COc1ccc(NS(=O)(=O)c2ccc(-c3cnc(C)o3)cc2)cc1OC,3.6 µM (active)
23,CCN(C(=O)c1ccco1)c1nc2ccccc2s1,0.9 µM (active)

row,Compound,CC50
1,CCc1nccn1[C@H]1CCCN(CCOc2ccc(F)cc2)C1,6 µM (active)
2,COc1ccc2c(c1)C(C(=O)N(Cc1ccc(N(C)C)cc1)c1ccc(C(C)C)cc1)CCC2 (stereo not given),23.2 µM (inactive)
3,COc1cc(CNc2cc(C)nc(N)n2)ccc1C,6.7 µM (active)
4,CC(C)CC(=O)Nc1[nH]nc2c1CN(C(=O)C1CCN(C)CC1)C2(C)C [PHA-793887],1 µM (active)
5,CN[C@H]1CCCN(C(=O)c2ccc(CN)cc2)C1,14.3 µM (inactive)
6,Cc1csc2nc(CN[C@H](c3ccc(Cl)cc3)C3CC3)cc(=O)n12,2.6 µM (active)
7,COc1cc2nc(N3CCN(C(=O)C4COc5ccccc5O4)CC3)nc(N)c2cc1OC (stereo not given) [DOXAZOSIN MESYLATE],13.5 µM (inactive)
8,O=C(N/N=C/c1ccccc1O)c1ccncc1 [SALINAZID],9.5 µM (active)
9,OCCN1CCN(CCCN2c3ccccc3Sc3ccc(Cl)cc32)CC1 [PERPHENAZINE],3.4 µM (active)
10,O=c1c2ccccc2[se]n1-c1ccccc1 [EBSELEN],28.4 µM (inactive)
11,CCN(CC)S(=O)(=O)c1cccc(C(=O)Nc2cccc(F)c2)c1,10.4 µM (active)
12,CCCCCCCC(=O)N[C@H](CN1CCCC1)[C@H](O)c1ccc2c(c1)OCCO2,15.7 µM (inactive)
13,COc1ccccc1C(=O)Nc1nc2ccccc2[nH]1,2.8 µM (active)
14,CC(=O)NCCc1ccc(C(=O)Cn2ncc(Cl)c(Cl)c2=O)s1,7.8 µM (active)
15,CCCOc1cc(S(=O)(=O)Nc2cccc(O)c2)ccc1Cl,12 µM (active)
16,COc1ccc(NC(=O)c2nc(S(C)(=O)=O)ncc2Br)cc1,1.9 µM (active)
17,Fc1ccccc1CC1CCN(C[C@H]2[C@@H]3CNC[C@@H]32)CC1,8.8 µM (active)
18,CC[C@@](NC(=O)c1csc(-c2ccoc2)n1)(C(N)=O)C(C)C,5.2 µM (active)
19,CC(=O)[C@]1(O)Cc2c(O)c3c(c(O)c2[C@@H](O[C@H]2C[C@H](N)[C@H](O)[C@H](C)O2)C1)C(=O)c1ccccc1C3=O [IDARUBICIN HYDROCHLORIDE],0.2 µM (active)
20,CC(C)(C)c1cc(C(C)(C)C)c(NC(=O)c2c[nH]c3ccccc3c2=O)cc1O [IVACAFTOR],7.5 µM (active)
21,O=C(NC(NC(=S)Nc1ccc(F)c([N+](=O)[O-])c1)C(Cl)(Cl)Cl)C(c1ccccc1)c1ccccc1 (stereo not given),6.3 µM (active)
22,COc1ccc(-c2nc(CC3CCN(C(=O)NC(C)(C)C)C3)no2)cc1 (stereo not given),7.8 µM (active)
23,Cc1ccc(NC(=O)Nc2ccc(Cl)cc2)cc1NS(C)(=O)=O,3.6 µM (active)

row,Compound,CC50
1,O=C(CC1CCCN(c2cn[nH]c(=O)c2)C1)Nc1cccc(Cl)c1 (stereo not given),8.1 µM (active)
2,CC(NC(=O)N(C)CC1CCOCC1)c1ccccc1C(F)(F)F (stereo not given),50 µM (inactive)
3,N=C(N)c1ccc(OCCCCCOc2ccc(C(=N)N)cc2)cc1 [PENTAMIDINE ISETHIONATE],3.4 µM (active)
4,O=C(Nc1ccccn1)c1cccc(NS(=O)(=O)c2c[nH]c3ncccc23)c1,8.6 µM (active)
5,CCC[C@]1(C)NC(=O)N(Cc2cc(-c3ccccc3)on2)C1=O,2.4 µM (active)
6,COc1cc(C(=O)N2CCC(N3CCN(C)CC3)CC2)ccc1Nc1ncc2c(n1)N(C)c1ccccc1C(=O)N2C,4.5 µM (active)
7,COc1ccccc1NC(=O)N1CCC(n2cnc3ccc(C)cc3c2=O)CC1,3.6 µM (active)
8,COc1ccc(-c2cn3nc(N4CCC(C(=O)NCCN(C)C)CC4)sc3n2)cc1,3.6 µM (active)
9,CCN(CC)Cc1cc(Nc2ccnc3cc(Cl)ccc23)ccc1O [AMODIAQUINE HYDROCHLORIDE],3 µM (active)
10,CCCN1C(=O)COc2ccc(-c3csc(NC(=O)CC(C)C)n3)cc21,18 µM (inactive)
11,COc1cc(C(=O)N2CC[C@@H](O)[C@@H](N)C2)cc2nc(-c3cc4ccccc4n3CC3CC3)n(C)c12,6.1 µM (active)
12,COC1=C2C[C@@H](C)C[C@H](OC)[C@H](O)[C@@H](C)/C=C(/C)[C@H](OC(N)=O)[C@@H](OC)/C=C\C=C(\C)C(=O)NC(=CC1=O)C2=O,< 0.1 µM (active)
13,COc1ccc2[nH]c(NC(=O)[C@@H]3CCCC(=O)N3)cc2c1,4.6 µM (active)
14,CC(C)[C@]12O[C@H]1[C@@H]1O[C@]13[C@]1(O[C@H]1C[C@H]1C4=C(CC[C@@]13C)C(=O)OC4)[C@@H]2O [TRIPTOLIDE],< 0.1 µM (active)
15,COc1cc(Nc2c(C#N)cnc3cc(OCCCN4CCN(C)CC4)c(OC)cc23)c(Cl)cc1Cl [BOSUTINIB],1.8 µM (active)
16,CN(C)C(=O)c1cccc(CN(C)c2ccccc2CO)c1,10.9 µM (active)
17,Nc1ccncc1CCC1CCCCC1,10.7 µM (active)
18,CC1CC[C@@]2(NC1)O[C@H]1C[C@H]3[C@@H]4CC=C5CC(O)CCC5(C)C4CCC3(C)[C@H]1[C@@H]2C (stereo not given in full),25.1 µM (inactive)
19,COc1cc(OC)c(C2=CCN(C[C@H](O)COc3ccccc3F)CC2)c(OC)c1,6 µM (active)
20,COc1cc(NCCCC(C)N)c2ncccc2c1 (stereo not given),8.6 µM (active)
21,COc1cc2c(cc1Cc1cccc(Cl)c1F)c(=O)c(C(=O)O)cn2[C@H](CO)C(C)C,10.2 µM (active)
